Experimental data taken from ChEMBL document CHEMBL5303304, “EUbOPEN Chemogenomics Library - IncuCyte” (2023).

Assays:
Assay type in all cases: toxicity, cell-based
HEK-293T = experiment: Incucyte cell viability with HEK293T; conditions: human, 10 µM, compound concentration 10 uM
Fibroblast = experiment: Incucyte cell viability with human fibroblast; conditions: 10 µM, compound concentration 10 uM
U2OS = experiment: Incucyte cell viability with U2OS; conditions: human, 10 µM, compound concentration 10 uM
Further: unitless GR value; below 1 slowed growth and below 0 cell loss.

| SMILES | Growth Rate (HEK-293T; 0 h, replicate number 1) | Growth Rate (HEK-293T; 0 h, replicate number 2) | Growth Rate (HEK-293T; 6 h, replicate number 1) | Growth Rate (HEK-293T; 18 h, replicate number 1) | Growth Rate (HEK-293T; 18 h, replicate number 2) | Growth Rate (HEK-293T; 24 h, replicate number 1) | Growth Rate (HEK-293T; 24 h, replicate number 2) | Growth Rate (Fibroblast; 0 h, replicate number 1) | Growth Rate (Fibroblast; 0 h, replicate number 2) | Growth Rate (Fibroblast; 12 h, replicate number 2) | Growth Rate (Fibroblast; 18 h, replicate number 2) | Growth Rate (Fibroblast; 24 h, replicate number 2) | Growth Rate (U2OS; 6 h, replicate number 2) | Growth Rate (U2OS; 12 h, replicate number 2) | Growth Rate (U2OS; 18 h, replicate number 2) | Growth Rate (U2OS; 24 h, replicate number 1) | Growth Rate (HEK-293T; 6 h, replicate number 2) | Growth Rate (HEK-293T; 12 h, replicate number 1) | Growth Rate (HEK-293T; 12 h, replicate number 2) | Growth Rate (U2OS; 18 h, replicate number 1) | other results |
| --- | --- | --- | --- | --- | --- | --- | --- | --- | --- | --- | --- | --- | --- | --- | --- | --- | --- | --- | --- | --- | --- |
| CC1(C)Cc2nc(C3CCCC3)c([C@@H](F)c3ccc(C(F)(F)F)cc3)c(C3CCCCC3)c2[C@@H](O)C1 | 0.94 | -0.11 | 0.88 | 0.88 | 0.91 | 0.83 | 0.89 | -0.22 | -0.59 | 0.89 | 0.82 | 0.95 | 0.48 | 0.54 | 0.82 | 0.87 |  |  |  |  | Growth Rate (Fibroblast; 6 h, replicate number 1): 0.71; Growth Rate (Fibroblast; 12 h, replicate number 1): 0.46; Growth Rate (Fibroblast; 18 h, replicate number 1): 0.51; Growth Rate (Fibroblast; 24 h, replicate number 1): 0.38; Growth Rate (U2OS; 0 h, replicate number 2): 0.96 |
| CCc1cnn2c(NCc3ccc[n+]([O-])c3)cc(N3CCCCC3CCO)nc12 (stereo not given) | -0.01 |  | -0.39 | -0.2 | -0.53 | -0.14 | -0.41 | -0.96 | 0.67 | -0.13 | -0.04 | -0.14 | 0.07 | 0.11 | -0.08 | -0.23 | -0.72 | -0.26 | -0.66 | -0.15 | Growth Rate (Fibroblast; 6 h, replicate number 1): 0.11; Growth Rate (Fibroblast; 6 h, replicate number 2): 0; Growth Rate (Fibroblast; 12 h, replicate number 1): 0.25; Growth Rate (Fibroblast; 18 h, replicate number 1): 0.16; Growth Rate (Fibroblast; 24 h, replicate number 1): 0.25; Growth Rate (U2OS; 0 h, replicate number 1): -0.62; Growth Rate (U2OS; 0 h, replicate number 2): 0.91; Growth Rate (U2OS; 6 h, replicate number 1): 0.19; Growth Rate (U2OS; 12 h, replicate number 1): -0.08 |
| CCCCOc1c(C(=O)c2c(F)cc(C)cc2F)c[nH]c2nncc1-2 | -1 |  |  |  |  |  |  | -1 |  |  |  |  |  |  |  |  |  |  |  |  | Growth Rate (U2OS; 0 h, replicate number 1): -1 |
| NS(=O)(=O)c1ccc(Nc2nc(OCC3CCCCC3)c3nc[nH]c3n2)cc1 | 0.76 |  |  |  | 0.9 |  | 0.82 | -1 |  | 0.55 | 0.56 |  |  |  | 0.94 | 0.87 |  |  | 0.98 | 0.8 | Growth Rate (U2OS; 0 h, replicate number 1): -0.84; Growth Rate (U2OS; 6 h, replicate number 1): -0.3; Growth Rate (U2OS; 12 h, replicate number 1): 0.53; Growth Rate (U2OS; 24 h, replicate number 2): 0.93 |
| Cn1cc(-c2ccc(N(C(=O)NCc3ccccc3)[C@H]3CC[C@H](Nc4ccc(C#N)cn4)CC3)cc2)ccc1=O | -0.73 | 0.96 | -0.2 | -0.21 | -0.48 | -0.14 | -0.39 | 0.84 | -0.77 | -0.01 | -0.04 | -0.08 | 0.58 |  | 0.06 | -0.14 | -0.56 | -0.28 | -0.56 | 0.12 | Growth Rate (Fibroblast; 6 h, replicate number 1): 0.65; Growth Rate (Fibroblast; 6 h, replicate number 2): 0.48; Growth Rate (Fibroblast; 12 h, replicate number 1): 0.45; Growth Rate (Fibroblast; 18 h, replicate number 1): 0.17; Growth Rate (Fibroblast; 24 h, replicate number 1): 0.16; Growth Rate (U2OS; 6 h, replicate number 1): 0.45; Growth Rate (U2OS; 12 h, replicate number 1): 0.28; Growth Rate (U2OS; 24 h, replicate number 2): -0.05 |
| CN(C(=O)CCOCCOCCOCCOCCNc1cccc2c1C(=O)N(C1CCC(=O)NC1=O)C2=O)[C@H]1CC[C@@]2(C)[C@@H](CC[C@@H]3[C@@H]2CC[C@]2(C)[C@@H](c4ccc5ccncc5c4)CC[C@@H]32)C1 (stereo not given in full) | 0.06 | -0.85 | 0.57 | 0.76 | 0.79 | 0.88 | 0.76 | -1 |  |  | 0.88 | 0.91 |  | -0.46 |  | 0.92 | 1 | 0.77 | 0.73 | 0.82 | Growth Rate (U2OS; 6 h, replicate number 1): 0.52; Growth Rate (U2OS; 12 h, replicate number 1): 0.79 |
| C=CC(=O)Nc1ccc(C(=O)Nc2n[nH]c3c2CN(C(=O)N[C@H](CN(C)C)c2ccccc2)C3(C)C)cc1 | -0.5 |  | 0.11 | 0.02 | -0.27 | 0.03 | -0.16 |  | -0.72 | 0.45 | 0.06 | -0.02 | 1 | -0.41 | 0.97 | 0.76 | -0.51 | 0.02 | -0.3 | 0.84 | Growth Rate (Fibroblast; 6 h, replicate number 2): 0.71; Growth Rate (Fibroblast; 12 h, replicate number 1): 0.56; Growth Rate (Fibroblast; 18 h, replicate number 1): 0.18; Growth Rate (Fibroblast; 24 h, replicate number 1): 0.19; Growth Rate (U2OS; 0 h, replicate number 1): -1 |
| CC(C)S(=O)(=O)c1ccccc1Nc1nc(N[C@@H]2CCCN(CCCCCCCNC(=O)COc3cccc4c3C(=O)N(C3CCC(=O)NC3=O)C4=O)C2)ncc1Cl (stereo not given in full) | -1 |  | -0.44 | -0.31 | -0.49 | -0.24 | -0.38 | -1 |  | -0.49 | -0.45 | -0.45 |  | 0.57 | 0.15 | -0.23 | -0.73 | -0.41 | -0.59 | 0.03 | Growth Rate (Fibroblast; 6 h, replicate number 1): -0.22; Growth Rate (Fibroblast; 6 h, replicate number 2): 0.14; Growth Rate (Fibroblast; 12 h, replicate number 1): -0.39; Growth Rate (Fibroblast; 18 h, replicate number 1): -0.33; Growth Rate (Fibroblast; 24 h, replicate number 1): -0.23; Growth Rate (U2OS; 0 h, replicate number 1): -1; Growth Rate (U2OS; 6 h, replicate number 1): 0.86; Growth Rate (U2OS; 12 h, replicate number 1): 0.25; Growth Rate (U2OS; 24 h, replicate number 2): 0.04 |
| Cn1cc(-n2cnc3c(NCc4nc5cc(Cl)c(Cl)cc5[nH]4)nc(N4CCOCC4)nc32)cn1 | -0.86 | 0.65 | -0.17 | -0.23 | -0.48 | -0.18 | -0.36 | -1 | -0.31 | -0.22 | -0.06 | 0 | -0.74 | -0.72 | -0.54 | -0.09 | -0.51 | -0.21 | -0.56 | 0.1 | Growth Rate (Fibroblast; 6 h, replicate number 1): 0.08; Growth Rate (Fibroblast; 6 h, replicate number 2): -0.32; Growth Rate (Fibroblast; 12 h, replicate number 1): 0.37; Growth Rate (Fibroblast; 18 h, replicate number 1): 0.46; Growth Rate (Fibroblast; 24 h, replicate number 1): 0.54; Growth Rate (U2OS; 0 h, replicate number 1): -0.99; Growth Rate (U2OS; 0 h, replicate number 2): -0.97; Growth Rate (U2OS; 12 h, replicate number 1): 0.64; Growth Rate (U2OS; 24 h, replicate number 2): -0.53 |
| O=C1Nc2nc(-c3c(O)cccc3OCC3CC3)cc([C@@H]3CCCNC3)c2CO1 | 0.88 | -0.36 | 0.72 | 0.78 |  | 0.93 |  |  | -0.79 |  |  |  | 0.44 | 0.47 | 0.79 | 0.83 | 0.83 | 0.62 | 0.47 |  | Growth Rate (U2OS; 0 h, replicate number 2): -0.52; Growth Rate (U2OS; 24 h, replicate number 2): 0.98 |
| Cc1cc(S(=O)(=O)N2CC(C)(C)c3cc(-c4ccc(C(F)(F)F)cc4)ccc32)ccc1OCC(=O)O | 0.52 | -0.17 | 0.72 | 0.71 | 0.95 | 0.79 |  | -0.12 | -0.87 |  |  |  | 0.68 | 0.54 | 0.8 |  | 0.73 | 0.7 | 0.81 |  | Growth Rate (Fibroblast; 6 h, replicate number 1): 0.92; Growth Rate (U2OS; 0 h, replicate number 2): -0.69; Growth Rate (U2OS; 6 h, replicate number 1): 0.69; Growth Rate (U2OS; 24 h, replicate number 2): 0.98 |
| CC(C)S(=O)(=O)c1ccccc1Nc1nc(N[C@@H]2CCCN(CCCCCCCNC(=O)COc3cccc4c3C(=O)N(C3CCC(=O)N(C)C3=O)C4=O)C2)ncc1Cl (stereo not given in full) | -1 | -0.99 | -0.52 | -0.33 | -0.5 | -0.27 | -0.39 | -1 |  | -0.21 | -0.36 | -0.36 | 0.49 | 0.08 | -0.14 | -0.24 | -0.7 | -0.4 | -0.61 | -0.06 | Growth Rate (Fibroblast; 6 h, replicate number 1): 0.41; Growth Rate (Fibroblast; 6 h, replicate number 2): 0.48; Growth Rate (Fibroblast; 12 h, replicate number 1): -0.14; Growth Rate (Fibroblast; 18 h, replicate number 1): -0.33; Growth Rate (Fibroblast; 24 h, replicate number 1): -0.23; Growth Rate (U2OS; 0 h, replicate number 1): -1; Growth Rate (U2OS; 6 h, replicate number 1): 0.42; Growth Rate (U2OS; 12 h, replicate number 1): 0.11; Growth Rate (U2OS; 24 h, replicate number 2): -0.2 |
